Tests used:
[1] = Proteolytic stability in Tris-HCl/CaCl2 buffer at pH 7.8 in presence of alpha-chymotrypsin assessed as compound degradation at 0.1 ug/uL after 6 hrs by mass spectrometry; type: ADME; details: pH 7.8, 6 h
[2] = Proteolytic stability in Tris-HCl/CaCl2 buffer at pH 7.8 in presence of alpha-chymotrypsin assessed as intact parent compound at 0.1 ug/uL measured after 24 hrs by mass spectrometry; type: ADME; details: pH 7.8, 24 h
[3] = Proteolytic stability in Tris-HCl/CaCl2 buffer at pH 7.8 in presence of alpha-chymotrypsin assessed as cleavage of compound at -3Trp-4Xxx- in second arm of dimer at 0.1 ug/uL after 24 hrs by mass spectrometry; type: ADME; details: pH 7.8, 24 h
[4] = Proteolytic stability in Tris-HCl/CaCl2 buffer at pH 7.8 in presence of alpha-chymotrypsin assessed as cleavage of compound at -3Trp-4Xxx- in second arm of dimer at 0.1 ug/uL after 4 hrs by mass spectrometry; type: ADME; details: pH 7.8, 4 h
[5] = Proteolytic stability in Tris-HCl/CaCl2 buffer at pH 7.8 in presence of alpha-chymotrypsin assessed as cleavage of compound at -3Trp-4Xxx- in one arm of dimer at 0.1 ug/uL measured after 1 hr by mass spectrometry; type: ADME; details: pH 7.8, 1 h
[6] = Proteolytic stability in 0.1 % formic acid at pH 1.8 in presence of pepsin after 24 hrs by mass spectrometry; type: ADME; details: isolated protein, pH 1.8, 24 h
[7] = Proteolytic stability in NH4HCO3 buffer at pH 8.0 in presence of trypsin at 0.1 ug/uL after 24 hrs by mass spectrometry; type: ADME; details: isolated protein, pH 8, 24 h
[8] = Drug metabolism in rat liver lysosomal homogenate assessed as [H-Lys(Dau=Aoa-Cys)-OH]2 formation at 0.1 ug/uL after 24 hrs by LC-MS analysis; type: ADME, tissue-based; details: tissue homogenate
[9] = Chemical stability of the compound in aqueous solution after 24 hrs by LC-MS analysis; type: physicochemical; details: buffer
Serum = test: Metabolic stability in human serum at 10 uM after 24 hrs by LC-MS analysis; type: ADME, cell-free
MCF7 = test: Cytostatic activity against human MCF7 cells after 72 hrs by MTT assay; type: functional, cell-based; details: MCF7, 72 h
[10] = Prodrug conversion in rat liver lysosomal homogenate assessed as H-Lys(Dau=Aoa-Cys)-OH formation at 0.1 ug/uL after 24 hrs by LC-MS analysis; type: ADME, tissue-based
[11] = Prodrug conversion in rat liver lysosomal homogenate assessed as free daunorubicin at 0.1 ug/uL after 24 hrs by LC-MS analysis; type: ADME, tissue-based
[12] = Prodrug conversion in rat liver lysosomal homogenate assessed as {[H-Lys(Dau=Aoa-Cys)-OH] [H-Lys(Dau=Aoa-Cys)P-OH]} formation at 0.1 ug/uL after 24 hrs by LC-MS analysis; type: ADME, tissue-based

Stability [1]	Stability [2]	Stability [3]	Stability [4]	Stability [5]	Stability [6]	Stability [7]	Drug metabolism [8]	Stability [9]	Stability (Serum)	IC50 (MCF7)	Drug metabolism [10]	Drug metabolism [11]	Drug metabolism [12]	Structure (SMILES)
Unstable	Stable	Stable	Stable	Unstable	Stable	Stable	Active	Stable	Stable	6.2 µM	–	–	–	COc1cccc2c1C(=O)c1c(O)c3c(c(O)c1C2=O)C[C@@](O)(/C(C)=N/OCC(=O)N[C@@H](CSSC[C@H](NC(=O)CO/N=C(\C)[C@]1(O)Cc2c(O)c4c(c(O)c2[C@@H](O[C@H]2C[C@H](N)[C@H](O)[C@H](C)O2)C1)C(=O)c1c(OC)cccc1C4=O)C(=O)NCCCC[C@H](NC(=O)[C@H](Cc1c[nH]c2ccccc12)NC(=O)[C@H](CC(=O)O)NC(=O)[C@H](Cc1cnc[nH]1)NC(=O)[C@H](CO)N(C)C(=O)[C@H](Cc1c[nH]c2ccccc12)NC(=O)[C@H](Cc1cnc[nH]1)NC(=O)[C@@H]1CCC(=O)N1)C(=O)N1CCC[C@H]1C(=O)NCC(N)=O)C(=O)NCCCC[C@H](NC(=O)[C@H](Cc1c[nH]c2ccccc12)NC(=O)[C@H](CC(=O)O)NC(=O)[C@H](Cc1cnc[nH]1)NC(=O)[C@H](CO)N(C)C(=O)[C@H](Cc1c[nH]c2ccccc12)NC(=O)[C@H](Cc1cnc[nH]1)NC(=O)[C@@H]1CCC(=O)N1)C(=O)N1CCC[C@H]1C(=O)NCC(N)=O)C[C@@H]3O[C@H]1C[C@H](N)[C@H](O)[C@H](C)O1
–	–	–	–	–	–	–	–	–	–	10.6 µM	Active	–	–	COc1cccc2c1C(=O)c1c(O)c3c(c(O)c1C2=O)C[C@@](O)(/C(C)=N/OCC(=O)NCCCC[C@H](NC(=O)[C@H](Cc1c[nH]c2ccccc12)NC(=O)[C@H](CC(=O)O)NC(=O)[C@H](Cc1cnc[nH]1)NC(=O)[C@H](CO)N(C)C(=O)[C@H](Cc1c[nH]c2ccccc12)NC(=O)[C@H](Cc1cnc[nH]1)NC(=O)[C@@H]1CCC(=O)N1)C(=O)N1CCC[C@H]1C(=O)NCC(N)=O)C[C@@H]3O[C@H]1C[C@H](N)[C@H](O)[C@H](C)O1
Unstable	Stable	Stable	Stable	Unstable	Stable	Stable	–	Stable	Stable	4.1 µM	–	Not Active	Active	COc1cccc2c1C(=O)c1c(O)c3c(c(O)c1C2=O)C[C@@](O)(/C(C)=N/OCC(=O)N[C@@H](CSSC[C@H](NC(=O)CO/N=C(\C)[C@]1(O)Cc2c(O)c4c(c(O)c2[C@@H](O[C@H]2C[C@H](N)[C@H](O)[C@H](C)O2)C1)C(=O)c1c(OC)cccc1C4=O)C(=O)NCCCC[C@H](NC(=O)[C@H](Cc1c[nH]c2ccccc12)NC(=O)[C@H](CC(=O)O)NC(=O)[C@H](Cc1cnc[nH]1)NC(=O)[C@H](CO)NC(=O)[C@H](Cc1c[nH]c2ccccc12)NC(=O)[C@H](Cc1cnc[nH]1)NC(=O)[C@@H]1CCC(=O)N1)C(=O)N1CCC[C@H]1C(=O)NCC(N)=O)C(=O)NCCCC[C@H](NC(=O)[C@H](Cc1c[nH]c2ccccc12)NC(=O)[C@H](CC(=O)O)NC(=O)[C@H](Cc1cnc[nH]1)NC(=O)[C@H](CO)NC(=O)[C@H](Cc1c[nH]c2ccccc12)NC(=O)[C@H](Cc1cnc[nH]1)NC(=O)[C@@H]1CCC(=O)N1)C(=O)N1CCC[C@H]1C(=O)NCC(N)=O)C[C@@H]3O[C@H]1C[C@H](N)[C@H](O)[C@H](C)O1
